Experimental data published in publication PMC11098465, “A comparative analysis of peptide-delivered antisense antibiotics using diverse nucleotide mimics” (RNA, 2024).

Legend:
[1] = test system: Cy5 5′-labeled acpP target RNA (40 nt, −20 to +20); test: Microscale thermophoresis (MST) binding affinity; set-up: species or system Salmonella; details: for EC50 of binding to target mRNA by MST (in words): unconjugated ASO; for EC50: read-out: mRNA-binding affinity (EC50)
Excerpt: To further quantify the binding affinities of the ASOs to the target mRNA, we used MST, a sensitive technique that measures a temperature-induced change in the fluorescence of a substrate as a function of the concentration of a nonfluorescent ligand ([Moon et al. 2018]; [Zimmer et al. 2021]). MST allowed us to quantify target affinity by calculating EC50 values, the half maximal effective concentration of binding to target mRNA (Table 1; Supplemental Fig. S4). […] Both are known to adopt C3′-endo ribose pucker conformation, which enhances their binding affinity to target mRNA ([Julien et al. 2008]; [Pallan et al. 2012]).
For each binding experiment, Cy5 5′-labeled RNA (as described above) was diluted to 10 nM in buffer A (50 mM Tris-HCl pH 7.6, 250 mM KCl, 5 mM MgCl2, 1 mM DTT, 5% glycerol supplemented with 0.05% Tween 20). A series of 16 tubes with different ASO dilutions (500–0.015 nM) were prepared in buffer A. For measurements, each ASO dilution was mixed with one volume of labeled RNA, which led to a final concentration of 5 nM labeled RNA and 250–0.007 nM of ASOs. The reaction was mixed by pipetting and incubated for 30 min at RT in the dark. Capillary forces were used to load the samples into Monolith NT.115 Premium Capillaries; measurements were performed using a Monolith Pico instrument (NanoTemper Technologies Gmbh) at an ambient temperature of 25°C. Instrument parameters were adjusted to 5% LED power, medium MST power, and MST on-time of 2.5 s. An initial fluorescence scan was performed across the capillaries to determine sample quality, which was followed by 16 thermophoresis measurements. […] Data of two independent measurements were analyzed for the ΔFnorm value determined by the MO Affinity Analysis software (NanoTemper Technologies Gmbh). The fitting for EC50 values was done using the Hill equation within the MO Affinity Analysis software. Data are presented as the mean EC50 values of two independent experiments.

[2] = test system: 5′ Cy5-labeled acpP target RNA (40 nt); test: Electrophoretic mobility shift assay (EMSA); assay type: binding, Salmonella; set-up: key to mRNA hybridization (EMSA): +++: Effect strength is represented by additional (+) signs.; ++: Effect strength is represented by additional (+) signs.; Effect strength is represented by additional (+) signs; details: unconjugated ASO, ASO:RNA 0.3:1 to 2.5:1; for Shift of target mRNA in EMSA (in words): 30 min RT, 15% native PAA gel; for mRNA hybridization (EMSA): summary grade
Protocol: To compare the ability of the unconjugated ASOs to hybridize to the target transcript, we used electrophoretic mobility shift assays (EMSAs), thermal UV melting curves, and microscale thermophoresis (MST). We first conducted EMSAs using a 40 nt target RNA sequence (nt −20 to +20 relative to the acpP translational start codon), which was 5′-labeled with a Cy5 dye. Sequence-specific ASOs were added at defined ASO:RNA ratios, while water or a scrambled PNA (PNAscr) were used as negative controls. We performed these binding studies with unconjugated ASOs, because the KFF carrier peptide is cleaved during transport into the bacterial cytoplasm ([Yavari et al. 2021]). […] The DNA-PTO modification is known to reduce the binding affinity of the ASO to its target RNA ([Chan et al. 2006]), and a 10mer might be too short to mediate interactions under our experimental conditions. To test if an excess of unspecific RNA impacts target binding, we also included samples that contained 1 μg yeast tRNA.
The EMSA was performed with a Cy5 5′-labeled RNA (purchased from Eurofins) encompassing the sequence spanning nucleotides −20 to +20 of acpP relative to the translation start codon. For annealing, TM buffer (10 mM Tris-HCl, 50 mM MgCl2) was used. First, 20 µM RNA was denatured by incubation at 95°C for 5 min followed by placement on ice. Then 1 µL of RNA (spiked with or without 1 µL of yeast tRNA [Ambion at a concentration of 10 mg/mL]) was added to PCR tubes containing 8 µL of water. To this, 1 µL of ASOs at the indicated concentrations (6.25–50 µM) was added to adjust ASO:RNA ratios of 0.3:1 to 2.5:1. As negative control, water was added instead of ASO, while a PNAscr sequence served as sequence-unspecific negative control (Fig. 2; Supplemental Fig. S2). These mixtures were incubated for 30 min at room temperature (RT), followed by the addition of 10 µL 2× gel loading (GL) buffer for subsequent loading on native 15% PAA RNA gel without urea (20 µL/sample; 6 µL of a 50 bp DNA marker + 14 µL 1× GL). The gel was run at 100–120 V for 2–3 h, concomitantly stained with SYBR gold (Thermo Fisher Scientific) for 15 min and imaged on Geldoc (Isogen Life Science B.V.).

Salmonella = Salmonella growth assay (MIC); assay type: cell-based, Salmonella enterica serovar Typhimurium strain SL1344; details: for Antibacterial activity (MIC): ASO conjugated to the KFF carrier peptide, ~10^5 cfu/mL in noncation-adjusted MHB, 37°C, OD600, highest concentration 10 µM; for Antibacterial activity (MIC) / Effect of KFF-ASO conjugates on Salmonella growth (in words): 24 h; for Effect of KFF-ASO conjugates on Salmonella growth (in words): up to 10 µM; for Effect of KFF-ASO conjugates on Salmonella growth (in words) / Bactericidal concentration: KFF conjugates; for Bactericidal concentration: spotting of ASO-treated bacterial samples at 24 h
Protocol: Next, we sought to compare the antibacterial efficacy of the ASOs upon delivery into bacterial cells with a KFF carrier peptide. Therefore, we measured the growth kinetics of Salmonella in the presence of the ASOs for 24 h (Fig. 4). Because we have previously shown that the KFF peptide has a minimum inhibitory concentration (MIC) of >10 µM ([Popella et al. 2021]), we choose 10 µM as a cutoff point in our experiments. […] Spotting of the ASO-treated bacterial samples at 24 h confirmed that PMO and PNA were bactericidal at 10 and 1.25 µM, respectively (Supplemental Fig. S6B).
An overnight bacterial cell culture was diluted 1:100 in fresh MHB and grown to OD600 0.5. The culture was then diluted to ∼10^5 cfu/mL in noncation-adjusted MHB. Subsequently, 190 µL bacterial solution was dispensed into a 96-well plate (Thermo Fisher Scientific) along with 10 µL of a 200 µM solution of the ASOs. Growth was monitored by measuring the OD at 600 nm every 20 min in a Synergy H1 plate reader (Biotek) with continuous double-orbital shaking (237 cpm) at 37°C for 24 h.

[3] = unconjugated ASO 250-0.007 nM, 5 nM Cy5 RNA, 50 mM Tris-HCl pH 7.6, 250 mM KCl, 5 mM MgCl2, 30 min RT, 25°C, Hill fit, mean ± SD, two independent experiments

Substance	EC50 of binding to target mRNA by MST (in words) [1]	EC50 [1, 3] [nM]	Shift of target mRNA in EMSA (in words) [2]	mRNA hybridization (EMSA) [2]	Antibacterial activity (MIC) (Salmonella) [µM]	Effect of KFF-ASO conjugates on Salmonella growth (in words) (Salmonella)	Bactericidal concentration (Salmonella) [µM]	mRNA-binding affinity (EC50) [1, 3]
RNA-F: 2′-fluorinated RNA 10mer ASO, sequence CTCATACTCT, targeting acpP −5 to +5 (all 2'-fluoro, backbone and T or U not given here)	lower-mid nanomolar range	72.8 ± 36.2	concentration-dependent shift of the target mRNA, starting at a 0.3:1 ratio of ASO:RNA	++	>10	slight growth retardation was observed at 5 and 10 µM	–	–
PNA: peptide nucleic acid 10mer ASO, sequence CTCATACTCT, targeting acpP −5 to +5 (all peptide nucleic acid (PNA))	upper picomolar range	0.4 ± 0.4	concentration-dependent shift of the target mRNA, starting at a 0.3:1 ratio of ASO:RNA	+++	1.25	–	1.25	–
DNA-PTO: phosphorothioate-modified DNA 10mer ASO, sequence CTCATACTCT, targeting acpP −5 to +5 (DNA, all phosphorothioate, methylation of C not given here)	–	–	did not interact with the target mRNA at any of the concentrations tested	–	>10	slight growth retardation was observed at 5 and 10 µM	–	Could not be determined
LNA: 2′–4′-locked RNA 10mer ASO, sequence CTCATACTCT, targeting acpP −5 to +5 (all LNA, backbone and methylation of C not given here)	upper picomolar range	0.3 ± 0.1	concentration-dependent shift of the target mRNA, starting at a 0.3:1 ratio of ASO:RNA	+++	>10	slight growth retardation was observed at 5 and 10 µM	–	–
PMO: phosphorodiamidate morpholino 10mer ASO, sequence CTCATACTCT, targeting acpP −5 to +5 (all phosphorodiamidate morpholino (PMO))	lower-mid nanomolar range	5.9 ± 2.7	limited binding even at 2.5× excess	+	10	–	10	–
RNA-MOE: 2′-methoxyethylated RNA 10mer ASO, sequence CTCATACTCT, targeting acpP −5 to +5 (all 2'-MOE, backbone and methylation of C not given here)	upper picomolar range	0.3 ± 0.2	concentration-dependent shift of the target mRNA, starting at a 0.3:1 ratio of ASO:RNA	++	>10	slight growth retardation was observed at 5 and 10 µM	–	–
RNA-OMe: 2′-methylated RNA 10mer ASO, sequence CTCATACTCT, targeting acpP −5 to +5 (all 2'-O-methyl, backbone and T or U not given here)	lower-mid nanomolar range	4 ± 0.2	did not interact with the target mRNA at any of the concentrations tested	–	>10	lacked any antibacterial activity	–	–
